# Source: patent US20260027068A1, “METHODS OF ADM[…]-KETAMINE” (Perception Neuroscience, Inc., priority 2022, published 2026)
# Assays:
# [1] = system: social defeat stress model in mice; settings: cited from earlier work
# [2] = Oxygen saturation (pulse oximetry, SpO2)
# Procedure: The Investigational Medicinal Product (IMP) R(−)-ketamine hydrochloride in sterile water for intravenous injection was investigated as an […] treatment of TRD. The International Union of Pure and Applied Chemistry (IUPAC) name is of the IMP is (2R)-2-(2-chlorophenyl)-2-(methylamino)cyclohexan-1-one. Subjects received the solution at either 30 mg or 60 mg dose, or a placebo. The IMP or placebo was administered on Day 1 as a single IV infusion via an electronic infusion pump over 40 minutes. The duration of study participation for each subject was up to 29 days including a screening period, a 3-day in-clinic visit, and 2 follow-up visits. 101 subjects were enrolled in approximately 20 study centers in the EU and the US.
# Tympanic or temporal temperature, heart rate, blood pressure (SBP/DBP), respiratory rate, and SpO2 were assessed. Blood pressure and pulse measurements will be assessed with a completely automated device while the subject is supine or semi-supine. Manual techniques will be used only if an automated device is not available. Blood pressure and pulse measurements should be preceded by at least 5 minutes of rest for the subject in a quiet setting without distractions (e.g., television, cell phones). An abnormal blood pressure value at screening may be repeated once after 5 minutes of relaxation to determine the subject's eligibility. Blood pressure was recorded using the same arm and position (supine or semi-supine) throughout the study, where possible. Vital signs (to be taken before blood collection for laboratory tests) consisted of 1 pulse and 3 blood pressure measurements (3 consecutive blood pressure readings will be recorded at intervals of at least 1 minute). The average of the 3 blood pressure readings was recorded in the CRF. A pulse oximeter was used to measure peripheral capillary oxygen saturation (SpO2) continuously from pre-dose until 4-hours post-dose. A pulse oximeter was clipped onto the finger or foot of the subject, and light will be sent through the finger or foot and measured on the other side.
# In these tables, baseline value is defined as the last non-missing value prior to study drug administration.
smiles,measurement,setting,value
"CN[C@@]1(c2ccccc2Cl)CCCCC1=O.Cl [R(−)-ketamine, (2R)-2-(2-chlorophenyl)-2-(methylamino)cyclohexan-1-one]",Anti-depressant effects,[1],more potent and long lasting anti-depressant effects when compared to S(+)-ketamine
same,"Oxygen Saturation, Max","[2]; 30 mg, Day 1, 15 minutes",100%
same,"Oxygen Saturation, Mean","[2]; 30 mg, Day 1, 15 minutes",98.3%
same,"Oxygen Saturation, Median","[2]; 30 mg, Day 1, 15 minutes",98.0%
same,"Oxygen Saturation, Min","[2]; 30 mg, Day 1, 15 minutes",96%
same,"Oxygen Saturation, Max","[2]; 30 mg, Day 1, 40 minutes",99%
same,"Oxygen Saturation, Mean","[2]; 30 mg, Day 1, 40 minutes",98.3%
same,"Oxygen Saturation, Median","[2]; 30 mg, Day 1, 40 minutes",98.0%
same,"Oxygen Saturation, Min","[2]; 30 mg, Day 1, 40 minutes",96%
same,"Oxygen Saturation, Max","[2]; 30 mg, Day 1, 60 minutes",100%
same,"Oxygen Saturation, Mean","[2]; 30 mg, Day 1, 60 minutes",98.2%
same,"Oxygen Saturation, Median","[2]; 30 mg, Day 1, 60 minutes",98.0%
same,"Oxygen Saturation, Min","[2]; 30 mg, Day 1, 60 minutes",96%
same,"Oxygen Saturation, Max","[2]; 30 mg, Day 1, 2 hours",100%
same,"Oxygen Saturation, Mean","[2]; 30 mg, Day 1, 2 hours",98.4%
same,"Oxygen Saturation, Median","[2]; 30 mg, Day 1, 2 hours",99.0%
same,"Oxygen Saturation, Min","[2]; 30 mg, Day 1, 2 hours",97%
same,"Oxygen Saturation, Max","[2]; 30 mg, Day 1, 4 hours",100%
same,"Oxygen Saturation, Mean","[2]; 30 mg, Day 1, 4 hours",98.3%
same,"Oxygen Saturation, Median","[2]; 30 mg, Day 1, 4 hours",98.0%
same,"Oxygen Saturation, Min","[2]; 30 mg, Day 1, 4 hours",96%
same,"Oxygen Saturation, Change from Baseline, Max","[2]; 30 mg, to Day 1, 15 minutes",2%
same,"Oxygen Saturation, Change from Baseline, Mean","[2]; 30 mg, to Day 1, 15 minutes",−0.3%
same,"Oxygen Saturation, Change from Baseline, Median","[2]; 30 mg, to Day 1, 15 minutes",0.0%
same,"Oxygen Saturation, Change from Baseline, Min","[2]; 30 mg, to Day 1, 15 minutes",−3%
same,"Oxygen Saturation, Change from Baseline, Max","[2]; 30 mg, to Day 1, 40 minutes",2%
same,"Oxygen Saturation, Change from Baseline, Mean","[2]; 30 mg, to Day 1, 40 minutes",−0.4%
same,"Oxygen Saturation, Change from Baseline, Median","[2]; 30 mg, to Day 1, 40 minutes",0.0%
same,"Oxygen Saturation, Change from Baseline, Min","[2]; 30 mg, to Day 1, 40 minutes",−2%
same,"Oxygen Saturation, Change from Baseline, Max","[2]; 30 mg, to Day 1, 60 minutes",1%
same,"Oxygen Saturation, Change from Baseline, Mean","[2]; 30 mg, to Day 1, 60 minutes",−0.5%
same,"Oxygen Saturation, Change from Baseline, Median","[2]; 30 mg, to Day 1, 60 minutes",0.0%
same,"Oxygen Saturation, Change from Baseline, Min","[2]; 30 mg, to Day 1, 60 minutes",−3%
same,"Oxygen Saturation, Change from Baseline, Max","[2]; 30 mg, to Day 1, 2 hours",3%
same,"Oxygen Saturation, Change from Baseline, Mean","[2]; 30 mg, to Day 1, 2 hours",−0.2%
same,"Oxygen Saturation, Change from Baseline, Median","[2]; 30 mg, to Day 1, 2 hours",0.0%
same,"Oxygen Saturation, Change from Baseline, Min","[2]; 30 mg, to Day 1, 2 hours",−2%
same,"Oxygen Saturation, Change from Baseline, Max","[2]; 30 mg, to Day 1, 4 hours",3%
same,"Oxygen Saturation, Change from Baseline, Mean","[2]; 30 mg, to Day 1, 4 hours",−0.4%
same,"Oxygen Saturation, Change from Baseline, Median","[2]; 30 mg, to Day 1, 4 hours",0.0%
same,"Oxygen Saturation, Change from Baseline, Min","[2]; 30 mg, to Day 1, 4 hours",−3%
same,"Oxygen Saturation, Max","[2]; 60 mg, Day 1, 15 minutes",100%
same,"Oxygen Saturation, Mean","[2]; 60 mg, Day 1, 15 minutes",98.2%
same,"Oxygen Saturation, Median","[2]; 60 mg, Day 1, 15 minutes",98.0%
same,"Oxygen Saturation, Min","[2]; 60 mg, Day 1, 15 minutes",96%
same,"Oxygen Saturation, Max","[2]; 60 mg, Day 1, 40 minutes",100%
same,"Oxygen Saturation, Mean","[2]; 60 mg, Day 1, 40 minutes",98.1%
same,"Oxygen Saturation, Median","[2]; 60 mg, Day 1, 40 minutes",98.0%
same,"Oxygen Saturation, Min","[2]; 60 mg, Day 1, 40 minutes",95%
same,"Oxygen Saturation, Max","[2]; 60 mg, Day 1, 60 minutes",100%
same,"Oxygen Saturation, Mean","[2]; 60 mg, Day 1, 60 minutes",98.1%
same,"Oxygen Saturation, Median","[2]; 60 mg, Day 1, 60 minutes",98.0%
same,"Oxygen Saturation, Min","[2]; 60 mg, Day 1, 60 minutes",95%
same,"Oxygen Saturation, Max","[2]; 60 mg, Day 1, 2 hours",100%
same,"Oxygen Saturation, Mean","[2]; 60 mg, Day 1, 2 hours",98.2%
same,"Oxygen Saturation, Median","[2]; 60 mg, Day 1, 2 hours",98.0%
same,"Oxygen Saturation, Min","[2]; 60 mg, Day 1, 2 hours",97%
same,"Oxygen Saturation, Max","[2]; 60 mg, Day 1, 4 hours",100%
same,"Oxygen Saturation, Mean","[2]; 60 mg, Day 1, 4 hours",98.3%
same,"Oxygen Saturation, Median","[2]; 60 mg, Day 1, 4 hours",99.0%
same,"Oxygen Saturation, Min","[2]; 60 mg, Day 1, 4 hours",96%
same,"Oxygen Saturation, Change from Baseline, Max","[2]; 60 mg, to Day 1, 15 minutes",4%
same,"Oxygen Saturation, Change from Baseline, Mean","[2]; 60 mg, to Day 1, 15 minutes",0.0%
same,"Oxygen Saturation, Change from Baseline, Median","[2]; 60 mg, to Day 1, 15 minutes",0.0%
same,"Oxygen Saturation, Change from Baseline, Min","[2]; 60 mg, to Day 1, 15 minutes",−2%
same,"Oxygen Saturation, Change from Baseline, Max","[2]; 60 mg, to Day 1, 40 minutes",2%
same,"Oxygen Saturation, Change from Baseline, Mean","[2]; 60 mg, to Day 1, 40 minutes",−0.1%
same,"Oxygen Saturation, Change from Baseline, Median","[2]; 60 mg, to Day 1, 40 minutes",0.0%
same,"Oxygen Saturation, Change from Baseline, Min","[2]; 60 mg, to Day 1, 40 minutes",−2%
same,"Oxygen Saturation, Change from Baseline, Max","[2]; 60 mg, to Day 1, 60 minutes",3%
same,"Oxygen Saturation, Change from Baseline, Mean","[2]; 60 mg, to Day 1, 60 minutes",−0.1%
same,"Oxygen Saturation, Change from Baseline, Median","[2]; 60 mg, to Day 1, 60 minutes",0.0%
same,"Oxygen Saturation, Change from Baseline, Min","[2]; 60 mg, to Day 1, 60 minutes",−4%
same,"Oxygen Saturation, Change from Baseline, Max","[2]; 60 mg, to Day 1, 2 hours",3%
same,"Oxygen Saturation, Change from Baseline, Mean","[2]; 60 mg, to Day 1, 2 hours",0.0%
same,"Oxygen Saturation, Change from Baseline, Median","[2]; 60 mg, to Day 1, 2 hours",0.0%
same,"Oxygen Saturation, Change from Baseline, Min","[2]; 60 mg, to Day 1, 2 hours",−2%
same,"Oxygen Saturation, Change from Baseline, Max","[2]; 60 mg, to Day 1, 4 hours",1%
same,"Oxygen Saturation, Change from Baseline, Mean","[2]; 60 mg, to Day 1, 4 hours",0.2%
same,"Oxygen Saturation, Change from Baseline, Median","[2]; 60 mg, to Day 1, 4 hours",0.0%
same,"Oxygen Saturation, Change from Baseline, Min","[2]; 60 mg, to Day 1, 4 hours",−2%
